Drawing on ChEMBL document CHEMBL3351638, “Discovery of 6-[5-(4-fluorophenyl)-3-methyl-pyrazol-4-yl]-benzoxazin-3-one derivatives as novel selective nonsteroidal mineralocorticoid receptor antagonists” (Bioorg Med Chem, 2014), this text covers IC50 and logD for 22 molecules.

In series [1] the target is T1, Progesterone receptor (Homo sapiens, UniProt P06401).
T1 sequence (P06401 whole entry): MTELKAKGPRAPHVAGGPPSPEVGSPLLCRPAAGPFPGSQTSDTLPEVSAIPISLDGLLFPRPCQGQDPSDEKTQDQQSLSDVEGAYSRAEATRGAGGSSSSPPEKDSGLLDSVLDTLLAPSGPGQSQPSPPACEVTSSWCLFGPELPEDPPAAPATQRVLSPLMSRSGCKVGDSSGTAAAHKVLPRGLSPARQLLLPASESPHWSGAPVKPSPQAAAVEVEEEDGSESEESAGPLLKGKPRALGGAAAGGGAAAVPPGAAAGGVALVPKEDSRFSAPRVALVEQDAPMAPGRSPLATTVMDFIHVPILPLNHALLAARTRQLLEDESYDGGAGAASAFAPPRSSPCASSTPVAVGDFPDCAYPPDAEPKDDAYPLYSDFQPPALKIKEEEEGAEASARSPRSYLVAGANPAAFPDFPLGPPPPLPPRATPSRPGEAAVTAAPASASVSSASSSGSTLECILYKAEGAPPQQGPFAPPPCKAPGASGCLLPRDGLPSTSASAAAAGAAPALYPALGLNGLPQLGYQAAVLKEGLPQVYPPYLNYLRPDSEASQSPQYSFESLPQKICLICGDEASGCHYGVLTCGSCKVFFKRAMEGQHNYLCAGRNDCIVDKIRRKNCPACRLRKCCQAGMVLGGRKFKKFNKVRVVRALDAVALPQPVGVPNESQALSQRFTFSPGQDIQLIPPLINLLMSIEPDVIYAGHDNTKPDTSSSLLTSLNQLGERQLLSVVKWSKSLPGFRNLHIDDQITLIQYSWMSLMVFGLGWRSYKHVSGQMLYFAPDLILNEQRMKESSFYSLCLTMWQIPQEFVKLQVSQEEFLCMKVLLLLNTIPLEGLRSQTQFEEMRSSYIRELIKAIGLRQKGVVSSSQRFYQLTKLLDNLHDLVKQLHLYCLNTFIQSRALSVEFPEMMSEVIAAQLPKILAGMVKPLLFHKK
Kind of series: Displacement of [[3H]-Progesterone from progesterone receptor (unknown origin) expressed in 293 cells after 16 hrs by scintillation counting. It counts as cell-based.

Series [2] deals with T2, Androgen receptor (Homo sapiens, UniProt P10275).
T2 sequence (P10275 whole entry): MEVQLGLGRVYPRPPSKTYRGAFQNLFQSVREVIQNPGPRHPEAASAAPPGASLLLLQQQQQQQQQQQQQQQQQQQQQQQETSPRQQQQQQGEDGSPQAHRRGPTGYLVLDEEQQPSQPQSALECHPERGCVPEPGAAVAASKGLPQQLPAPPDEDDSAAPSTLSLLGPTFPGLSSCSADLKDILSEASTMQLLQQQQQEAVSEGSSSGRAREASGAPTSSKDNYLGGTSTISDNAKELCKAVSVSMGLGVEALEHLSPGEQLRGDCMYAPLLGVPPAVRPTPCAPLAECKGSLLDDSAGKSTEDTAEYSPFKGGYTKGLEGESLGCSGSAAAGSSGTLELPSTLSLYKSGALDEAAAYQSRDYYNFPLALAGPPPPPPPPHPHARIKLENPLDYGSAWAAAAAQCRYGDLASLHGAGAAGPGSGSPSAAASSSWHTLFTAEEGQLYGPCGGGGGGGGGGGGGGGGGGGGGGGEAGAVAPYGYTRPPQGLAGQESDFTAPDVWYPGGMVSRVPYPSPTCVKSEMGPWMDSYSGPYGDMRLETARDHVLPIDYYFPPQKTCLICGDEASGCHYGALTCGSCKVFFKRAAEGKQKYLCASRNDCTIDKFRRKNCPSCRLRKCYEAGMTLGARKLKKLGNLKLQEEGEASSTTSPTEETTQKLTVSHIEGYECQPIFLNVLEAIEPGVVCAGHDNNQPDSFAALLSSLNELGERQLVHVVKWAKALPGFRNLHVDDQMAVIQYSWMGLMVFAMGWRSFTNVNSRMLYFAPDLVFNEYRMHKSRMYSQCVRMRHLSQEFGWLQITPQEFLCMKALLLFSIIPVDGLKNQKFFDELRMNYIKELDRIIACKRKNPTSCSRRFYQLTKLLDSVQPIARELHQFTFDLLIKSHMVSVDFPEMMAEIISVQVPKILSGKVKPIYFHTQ
Nature of the series: biochemical.
Description: Displacement of [3H]testosterone from androgen receptor (unknown origin) expressed in 293 cells after 16 hrs by scintillation counting

Series [3] deals with T3, Mineralocorticoid receptor (Homo sapiens, UniProt P08235).
T3 sequence (P08235 whole entry): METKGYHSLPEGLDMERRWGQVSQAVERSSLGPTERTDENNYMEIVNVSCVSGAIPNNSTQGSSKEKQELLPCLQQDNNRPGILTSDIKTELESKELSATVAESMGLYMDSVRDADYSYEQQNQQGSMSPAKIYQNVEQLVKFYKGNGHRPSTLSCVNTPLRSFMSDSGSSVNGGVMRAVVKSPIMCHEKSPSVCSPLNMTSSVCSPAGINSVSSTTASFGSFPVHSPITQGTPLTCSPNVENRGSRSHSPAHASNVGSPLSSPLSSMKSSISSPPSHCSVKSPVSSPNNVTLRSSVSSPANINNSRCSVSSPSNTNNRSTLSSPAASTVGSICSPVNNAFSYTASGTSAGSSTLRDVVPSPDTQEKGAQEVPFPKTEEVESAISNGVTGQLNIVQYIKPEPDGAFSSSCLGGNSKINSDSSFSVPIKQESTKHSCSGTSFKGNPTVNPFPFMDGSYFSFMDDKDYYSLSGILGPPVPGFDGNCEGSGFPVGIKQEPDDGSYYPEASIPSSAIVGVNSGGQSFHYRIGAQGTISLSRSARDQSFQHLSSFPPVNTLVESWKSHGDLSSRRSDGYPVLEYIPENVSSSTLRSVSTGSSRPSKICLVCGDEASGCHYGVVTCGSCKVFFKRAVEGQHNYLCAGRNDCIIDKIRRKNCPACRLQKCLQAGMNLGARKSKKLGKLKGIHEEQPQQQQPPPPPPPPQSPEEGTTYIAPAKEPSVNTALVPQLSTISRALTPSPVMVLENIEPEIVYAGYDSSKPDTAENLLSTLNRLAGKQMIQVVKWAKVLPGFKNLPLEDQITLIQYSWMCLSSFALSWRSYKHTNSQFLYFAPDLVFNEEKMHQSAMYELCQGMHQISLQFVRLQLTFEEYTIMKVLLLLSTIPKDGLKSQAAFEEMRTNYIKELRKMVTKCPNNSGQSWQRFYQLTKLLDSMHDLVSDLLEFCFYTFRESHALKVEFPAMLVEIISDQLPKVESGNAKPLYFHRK
Nature of the series: biochemical.
Description: Displacement of [3H]aldosterone from human mineralocorticoid receptor expressed in 293 cells after 16 hrs by scintillation counting

The target of series [4] is Glucocorticoid receptor (Homo sapiens, UniProt P04150). Nature of the series: biochemical.
Description: Displacement of [3H]-Dexamethasone from glucocorticoid receptor (unknown origin) expressed in 293 cells after 16 hrs by scintillation counting
Series [5] deals with T3, Mineralocorticoid receptor.
Description: Antagonist activity at human mineralocorticoid receptor expressed in COS1 cells after 1 day by luciferase reporter gene assay
Series [6] is described as follows: Lipophilicity, log D of the compound at pH 7.4 by HPLC analysis. It counts as physicochemical. The settings on record: buffer.

Sequence of Glucocorticoid receptor (P04150 whole entry, looked up): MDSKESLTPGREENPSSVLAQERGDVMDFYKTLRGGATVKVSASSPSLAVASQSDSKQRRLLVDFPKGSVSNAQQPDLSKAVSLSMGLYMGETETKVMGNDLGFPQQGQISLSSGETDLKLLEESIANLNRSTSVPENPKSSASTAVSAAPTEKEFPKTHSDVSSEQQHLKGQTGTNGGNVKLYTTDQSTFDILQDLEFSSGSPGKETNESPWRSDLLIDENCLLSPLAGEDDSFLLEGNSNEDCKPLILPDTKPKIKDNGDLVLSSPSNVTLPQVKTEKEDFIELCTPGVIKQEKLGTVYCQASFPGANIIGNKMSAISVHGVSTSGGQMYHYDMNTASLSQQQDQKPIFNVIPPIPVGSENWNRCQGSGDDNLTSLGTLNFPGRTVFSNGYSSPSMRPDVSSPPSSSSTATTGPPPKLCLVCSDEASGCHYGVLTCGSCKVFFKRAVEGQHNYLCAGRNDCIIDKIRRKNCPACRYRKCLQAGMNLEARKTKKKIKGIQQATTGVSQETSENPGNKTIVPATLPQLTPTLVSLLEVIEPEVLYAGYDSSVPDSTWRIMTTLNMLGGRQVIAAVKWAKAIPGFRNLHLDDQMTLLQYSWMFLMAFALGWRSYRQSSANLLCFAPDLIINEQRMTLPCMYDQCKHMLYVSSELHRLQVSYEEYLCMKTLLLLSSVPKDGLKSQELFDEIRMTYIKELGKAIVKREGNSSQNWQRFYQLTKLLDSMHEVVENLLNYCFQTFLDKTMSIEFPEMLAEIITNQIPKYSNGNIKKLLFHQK

Regarding `Cc1cc(C2=C(c3ccc(F)cc3)C(=O)NC2C)cc2c1OCC(=O)N2` (stereo not given), the IC50 in series [1] and in series [2] was > 10000 nM throughout.
With `Cc1[nH]nc(-c2ccc3c(c2)NC(=O)CO3)c1-c1ccc(F)cc1`, the IC50 in series [1] was 1600 nM; in series [3] it was 3700 nM; in series [2], > 10000 nM; in series [4], > 10000 nM.
Take `Cc1onc(-c2ccc3c(c2)NC(=O)CO3)c1-c1ccc(F)cc1`: the IC50 in series [1] was > 10000 nM; in series [5] it was 1400 nM; in series [3], 710 nM; in series [2] it was > 10000 nM; in series [4] it was > 10000 nM.
Turning to `Cn1ncc(-c2ccc3c(c2)NC(=O)CO3)c1-c1ccc(F)cc1`, the IC50 is > 10000 nM in series [1]; 170 nM in series [5]; 290 nM in series [3]; > 10000 nM in series [2]; > 10000 nM in series [4].
As for `Cc1nn(C)c(-c2ccc(F)cc2)c1-c1ccc2c(c1)NC(=O)CO2`, the IC50 was 9800 nM in series [1]; 160 nM in series [5]; 110 nM in series [3]; > 10000 nM in series [2]; 3200 nM in series [4]. For the same molecule, in series [6], the logD stood at 2.51.
Consider `Cc1nn(C)c(-c2ccc(F)cc2F)c1-c1ccc2c(c1)NC(=O)CO2`, for which the IC50 was 9300 nM in series [1]; 600 nM in series [5]; 190 nM in series [3]; > 10000 nM in series [2]; 2300 nM in series [4].
The like results for `Cc1cc(-c2c(C)nn(C)c2-c2ccc(F)cc2)cc2c1OCC(=O)N2` were, in that order, > 10000 nM, 350 nM, 150 nM, > 10000 nM and 2500 nM.
With `CCn1nc(C)c(-c2ccc3c(c2)NC(=O)CO3)c1-c1ccc(F)cc1`, the IC50 is > 10000 nM in series [1]; 950 nM in series [5]; 510 nM in series [3]; > 10000 nM in series [2]; 5600 nM in series [4].
Take `CCCn1nc(C)c(-c2ccc3c(c2)NC(=O)CO3)c1-c1ccc(F)cc1`: the IC50 in series [1] was 5700 nM; in series [5] it was 180 nM; in series [3], 81 nM; in series [2] it was > 10000 nM; in series [4], 1600 nM.
The corresponding values for `Cc1nn(Cc2ccccc2)c(-c2ccc(F)cc2)c1-c1ccc2c(c1)NC(=O)CO2` are 2000 nM, 64 nM, 100 nM, 5600 nM and 630 nM.
As to `Cc1nn(-c2ccccc2)c(-c2ccc(F)cc2)c1-c1ccc2c(c1)NC(=O)CO2`, in series [3], the IC50 is > 10000 nM.
With `Cc1nn(CCCO)c(-c2ccc(F)cc2)c1-c1ccc2c(c1)NC(=O)CO2`, the IC50 in series [1] is > 10000 nM; in series [5] it was 680 nM; in series [3] it was 440 nM; in series [2] it was > 10000 nM; in series [4], > 10000 nM. The molecule further had a logD in series [6] of 1.99.
For `Cc1nn(CCCCO)c(-c2ccc(F)cc2)c1-c1ccc2c(c1)NC(=O)CO2`, the IC50 in series [1] was > 10000 nM; in series [5], 130 nM; in series [3], 75 nM; in series [2] it was > 10000 nM; in series [4], 5400 nM. In series [6], this molecule had a logD of 2.16.
`Cc1nn(Cc2ccccn2)c(-c2ccc(F)cc2)c1-c1ccc2c(c1)NC(=O)CO2`: the concentration for half-maximal inhibition (IC50) in series [1] is > 10000 nM; in series [5], 990 nM; in series [3], 2800 nM; in series [2], > 10000 nM; in series [4], > 10000 nM. In series [6], this molecule returned a logD of 2.45.
On to `Cc1nn(Cc2ccncc2)c(-c2ccc(F)cc2)c1-c1ccc2c(c1)NC(=O)CO2`, for which the IC50 in series [1] was > 10000 nM; in series [5], 430 nM; in series [3] it was 520 nM; in series [2], > 10000 nM; in series [4], > 10000 nM. In series [6], this molecule returned a logD of 2.2.
Take `CCCCn1nc(C)c(-c2ccc3c(c2)NC(=O)CO3)c1-c1ccc(F)cc1`: the IC50 in series [1] amounted to 4000 nM; in series [5], 45 nM; in series [3] it was 22 nM; in series [2], 3600 nM; in series [4] it was 1400 nM.
Regarding `Cc1nn(CC(C)C)c(-c2ccc(F)cc2)c1-c1ccc2c(c1)NC(=O)CO2`, the IC50 turned out to be 4300 nM in series [1]; 49 nM in series [5]; 60 nM in series [3]; 3700 nM in series [2]; 390 nM in series [4].
For the molecule `Cc1nn(CCCC(F)(F)F)c(-c2ccc(F)cc2)c1-c1ccc2c(c1)NC(=O)CO2`, the IC50 in series [1] was 6800 nM; in series [5], 33 nM; in series [3], 8.4 nM; in series [2], > 10000 nM; in series [4], 1100 nM.
As for `CC(=O)NCCn1nc(C)c(-c2ccc3c(c2)NC(=O)CO3)c1-c1ccc(F)cc1`, the IC50 in series [3] is > 10000 nM.
Regarding `Cc1nn(CCNS(C)(=O)=O)c(-c2ccc(F)cc2)c1-c1ccc2c(c1)NC(=O)CO2`, the IC50 was > 10000 nM in series [1]; 2000 nM in series [5]; 250 nM in series [3]; > 10000 nM in series [2]; > 10000 nM in series [4]. In series [6], this molecule had a logD of 1.7.
Take `Cc1nn(CCC#N)c(-c2ccc(F)cc2)c1-c1ccc2c(c1)NC(=O)CO2`: the IC50 in series [1] is 5700 nM; in series [5], 490 nM; in series [3], 530 nM; in series [2], > 10000 nM; in series [4] it was 4600 nM. In series [6], this molecule returned a log distribution coefficient (logD) of 1.89.
Consider `Cc1nn(CCC(C)(F)F)c(-c2ccc(F)cc2)c1-c1ccc2c(c1)NC(=O)CO2`, for which the 50% inhibitory concentration (IC50) in series [1] was 4000 nM; in series [5], 18 nM; in series [3], 10 nM; in series [2], 9200 nM; in series [4], 370 nM.
